ChEMBL document CHEMBL1201862, “PubChem BioAssay data set” (2004)
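48-hour exposure; five concentrations; linearly interpolated endpoints. GI50 is the concentration that inhibits growth by half.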 Activity calls are given as the source filed them. Rule as the data show it: active = GI50 up to about 1.1 µM and inactive = higher.

How the values were obtained:
Assay in all cases: inhibition of tumour cell growth, NCI panel, 48 h
[1] = system: MDA-MB-231
[2] = system: UO-31
[3] = system: SK-MEL-2
[4] = system: NCI-H23
[5] = system: OVCAR-3
[6] = system: SK-MEL-28
[7] = system: HT-29
[8] = system: SF-268
[9] = system: HCT-15
[10] = system: SNB-78
[11] = system: KM12
[12] = system: SNB-19
[13] = system: SR
[14] = system: ACHN
[15] = system: NCI-H226
[16] = system: KM-20L2
[17] = system: Hs-578T
[18] = system: HCT-116
[19] = system: SK-MEL-5
[20] = system: T47D
[21] = system: HOP-62
[22] = system: Malme-3M
[23] = system: DMS-273
[24] = system: COLO 205
[25] = system: HOP-92
[26] = system: SNB-75
[27] = system: A549
[28] = system: DU-145
[29] = system: PC-3
[30] = system: SF-295
[31] = system: SF-539
[32] = system: HCC 2998
[33] = system: OVCAR-5
[34] = system: NCI-H522
[35] = system: SK-OV-3
[36] = system: K562
[37] = system: DLD-1
[38] = system: HL-60
[39] = system: HOP-18
[40] = system: M19-MEL
[41] = system: SN12C
[42] = system: NCI-H460
[43] = system: MDA-MB-435
[44] = system: UACC-62
[45] = system: CCRF-CEM
[46] = system: EKVX
[47] = system: MCF7
[48] = system: NCI/ADR-RES
[49] = system: RPMI-8226
[50] = system: SW-620
[51] = system: OVCAR-8
[52] = system: CAKI-1
[53] = system: LOX IMVI
[54] = system: MOLT-4
[55] = system: TK-10
[56] = system: RXF 393
[57] = system: IGROV-1
[58] = system: LXFL 529
[59] = system: RXF 631
[60] = system: UACC-257
[61] = system: 786-0
[62] = system: U-251
[63] = system: MDA-N
[64] = system: A498
[65] = system: OVCAR-4
[66] = system: M14
[67] = system: XF498
[68] = system: DMS-114

Measured: GI50

CCCCC(=O)OC[n+]1ccc2c(C)c3[nH]c4ccccc4c3c(C)c2c1
0.222 µM: [9]
active: [1] 0.174 µM | [2] 0.701 µM | [4] 0.14 µM | [7] 0.46 µM | [8] 0.46 µM | [10] 0.796 µM | [11] 0.446 µM | [12] 0.466 µM | [13] 0.0895 µM | [14] 0.187 µM | [15] 0.475 µM | [16] 0.687 µM | [17] 0.217 µM | [18] 0.221 µM | [20] 1.01 µM | [21] 0.537 µM | [23] 0.147 µM | [24] 0.535 µM | [27] 0.267 µM | [28] 1.04 µM | [29] 0.298 µM | [30] 0.676 µM | [31] 0.526 µM | [32] 0.433 µM | [33] 0.525 µM | [34] 0.773 µM | [35] 0.74 µM | [36] 0.186 µM | [37] 0.37 µM | [38] 0.378 µM | [40] 1.07 µM | [41] 0.376 µM | [42] 0.0275 µM | [43] 0.618 µM | [45] 0.0432 µM | [46] 0.497 µM | [47] 0.18 µM | [48] 0.526 µM | [49] 0.195 µM | [50] 0.359 µM | [51] 0.385 µM | [53] 0.493 µM | [54] 0.0775 µM | [56] 0.297 µM | [57] 0.502 µM | [58] 0.855 µM | [59] 1.07 µM | [61] 0.298 µM | [62] 0.574 µM | [63] 0.484 µM | [64] 0.681 µM | [65] 1.01 µM
inactive: [3] 1.97 µM | [5] 1.22 µM | [6] 1.32 µM | [19] 1.39 µM | [22] 1.46 µM | [25] 1.62 µM | [26] 1.28 µM | [39] 1.34 µM | [44] 1.26 µM | [52] 1.25 µM | [55] 1.21 µM | [60] 1.43 µM | [66] 1.34 µM

O=C(CC(=O)N1N=C(c2ccccc2)C(/N=N/c2ccc(C(=O)O)cc2)C1=O)Nc1ccc(F)cc1 (configuration not stated)
inactive: [2] 29.6 µM | [3] 17.9 µM | [4] 23.4 µM | [5] 14.3 µM | [6] 38.3 µM | [7] 48.9 µM | [8] 15.9 µM | [10] 42.8 µM | [12] 36.4 µM | [14] 23.6 µM | [15] 6.15 µM | [16] 46.5 µM | [67] 20.4 µM | [18] 12.2 µM | [19] 16.7 µM | [22] 60.7 µM | [23] 27.2 µM | [24] 43.8 µM | [25] 50.8 µM | [26] 1.51 µM | [27] 39.2 µM | [30] 36.9 µM | [31] 13.4 µM | [33] 52.1 µM | [34] 10.4 µM | [35] 12.2 µM | [36] 18.9 µM | [37] 20.9 µM | [38] 22 µM | [40] 74 µM | [41] 38.9 µM | [42] 28.7 µM | [44] 20.5 µM | [46] 30.1 µM | [49] 27.5 µM | [68] 34.5 µM | [50] 59.3 µM | [51] 40.8 µM | [52] 7.55 µM | [53] 12.4 µM | [55] 33.1 µM | [56] 4.01 µM | [57] 22.5 µM | [58] 23.5 µM | [59] 36.4 µM | [60] 58.9 µM | [61] 21.2 µM | [64] 10.6 µM | [65] 52 µM | [66] 38.8 µM
18 µM: [9]
